The target of assay [1] is T1, STAT6 (Homo sapiens, UniProt P42226).
T1 construct: These cells express endogenous STAT6; host or cells: HeLa LgBiT clone 4.14 (CRISPR knock-in of HiBiT into the endogenous STAT6 gene)
T1 sequence (P42226 1-847): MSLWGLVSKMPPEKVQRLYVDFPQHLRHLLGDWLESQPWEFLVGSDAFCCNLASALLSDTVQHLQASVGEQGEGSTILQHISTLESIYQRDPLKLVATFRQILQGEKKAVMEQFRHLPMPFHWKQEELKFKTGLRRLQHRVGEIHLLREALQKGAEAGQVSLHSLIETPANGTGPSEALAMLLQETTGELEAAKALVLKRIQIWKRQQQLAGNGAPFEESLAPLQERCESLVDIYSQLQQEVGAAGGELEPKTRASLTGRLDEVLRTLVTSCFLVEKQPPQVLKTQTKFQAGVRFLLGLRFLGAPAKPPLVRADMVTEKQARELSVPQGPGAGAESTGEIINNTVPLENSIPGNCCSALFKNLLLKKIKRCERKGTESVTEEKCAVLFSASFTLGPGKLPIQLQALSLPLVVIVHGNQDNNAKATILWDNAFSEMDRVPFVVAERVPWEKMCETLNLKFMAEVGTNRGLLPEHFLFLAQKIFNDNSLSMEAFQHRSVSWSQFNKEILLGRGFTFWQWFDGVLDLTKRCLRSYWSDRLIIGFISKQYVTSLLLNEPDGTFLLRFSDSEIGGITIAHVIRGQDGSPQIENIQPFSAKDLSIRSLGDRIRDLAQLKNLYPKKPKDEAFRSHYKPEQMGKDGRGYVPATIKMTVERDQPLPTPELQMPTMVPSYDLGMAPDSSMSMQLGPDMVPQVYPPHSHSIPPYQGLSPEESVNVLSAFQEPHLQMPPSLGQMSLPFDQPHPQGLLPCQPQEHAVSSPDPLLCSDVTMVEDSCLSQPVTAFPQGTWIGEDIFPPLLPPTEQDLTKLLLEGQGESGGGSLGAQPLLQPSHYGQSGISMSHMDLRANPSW
Put plainly: STAT6 Degrader Assay (HiBiT based, HeLa LgBiT clone 4.14 cells). The class given is cell-based. Particulars: for DC50: geometric mean across assay runs and compound batches, DC50 provided for test compounds with >80% Emax, read-out: STAT6 degradation DC50. The gist of the method:
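DC50 (nM) comes from NanoBiT luminescence of HiBiT-knock-in STAT6 in HeLa LgBiT clone 4.14 cells, treated 4-24 h at 37° C. Luminescence reflects non-degraded STAT6, with 50 μM terfenadine wells taken as full degradation.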

Assay [2] deals with Eotaxin-3 (CCL26) release. Put plainly: Human Whole Blood Eotaxin-3 Assay (IL-4 stimulated). The class given is cell-based. Conditions: Homo sapiens; geometric mean across assay runs and compound batches; EC50 provided for test compounds with >80% Emax. As for the experimental part:
This was a human whole blood assay using recombinant human Interleukin 4 to stimulate the blood and measuring the ability of the test compounds to inhibit eotaxin-3 release. The biological activities of the test compounds have been tested in human whole blood stimulated with IL-4 measuring Eotaxin-3 release. The test compounds were added to 384 well clear flat-bottom plate in a 4-fold serial dilution in triplicates using a liquid handler. Human whole blood stabilized in lithium-heparin tubes was added in a volume of 65 μL per well, resulting in a final DMSO concentration of 0.5%. The plate is incubated for 2 h at 37° C. under 5% CO2/95% air. Subsequently, 5 μL of recombinant human IL-4 (R&D Systems, cat #204-ILB) was added to the wells to a final concentration of 400 pM. The plate was incubated for 48 h at 37° C. under 5% CO2/95% air. The plate was spun down for 10 minutes at 500×g and 20 μL supernatant was harvested and transferred to a 384 well v-bottom plate using a liquid handler and stored at −20° C. until further analysis. 10 μL supernatant was used to measure the level of Eotaxin-3 (CCL26) using Human Eotaxin-3 MSD kit from Mesocsale (Cat #K251UEK-4). The assay was performed according to the manufacture instructions.

Structures are written as SMILES.

Take `CNc1cc(=O)n(-c2ccnc3c2cc([C@H](C)N2CC=C(c4c(C)cc(C(=O)N5CCn6nc(CN7CCC(c8ccc(N[C@H]9CCC(=O)NC9=O)c(OC)c8)CC7)cc6C5)cc4F)CC2)n3C)cc1F` (single isomer, unassigned) [Example 2g11]: in assay [1], the 50% degradation concentration (DC50) (as a rule, the midpoint of the concentration-degradation curve) is 1 nM. In addition, in assay [2], the midpoint of the response, the EC50, lay at 1.7 nM.

In the case of `CNc1ccn(-c2ccnc3c2cc([C@H](C)N2CC=C(c4c(C)cc(C(=O)N5CCn6nc(CN7CCC(c8cc(OC)c(NC9CCC(=O)NC9=O)cc8F)CC7)cc6C5)cc4F)CC2)n3C)c(=O)c1` (stereo partly drawn) [Example 2g128, 3-((5-fluoro-4-(1-((5-(3-fluoro-5-methyl-4-(1-((S)-1-(1-methyl-4-(4-(methyl-amino)-2-oxopyridin-1(2H)-yl)-1H-pyrrolo[2,3-b]pyridin-2-yl)ethyl)-1,2,3,6-tetrahydro-pyridin-4-yl)benzoyl)-4,5,6,7-tetrahydropyrazolo[1,5-a]pyr-azin-2-yl)methyl)piperidin-4-yl)-2-methoxyphenyl)amino)-piperidine-2,6-dione], the DC50 in assay [1] was determined as 0.1 nM. Further, in assay [2], the EC50 – broadly, the concentration giving half of the maximal effect – worked out at 0.2 nM.

With `CNc1cc(=O)n(-c2ccnc3c2cc(CN2CCC(c4c(F)cc(C(=O)N5CCn6nc(CN7CCC(c8ccc(N[C@H]9CCC(=O)NC9=O)c(OC)c8)CC7)cc6C5)cc4F)CC2)n3C)cc1F` (single isomer, unassigned) [Example 2g123], the DC50 in assay [1] was found to be 1.8 nM. Also, the EC50 in assay [2] came out at 2.6 nM.

`C[C@@H](c1cc2c(-n3ccc4c(c3=O)CCN4)ccnc2n1C)N1CCC(c2ccc(C(=O)N3CCC(CN4CCN(c5ccc(NC6CCC(=O)NC6=O)cc5F)CC4)CC3)cc2)CC1` (stereo partly drawn) [Example 2c29, 3-((3-fluoro-4-(4-((1-(4-(1-((S)-1-(1-methyl-4-(4-oxo-1,2,3,4-tetrahydro-5H-pyr-rolo[3,2-c]pyridin-5-yl)-1H-pyrrolo[2,3-b]pyridin-2-yl)-ethyl)piperidin-4-yl)benzoyl)-piperidin-4-yl)methyl)piper-azin-1-yl)phenyl)amino)piper-idine-2,6-dione]: in assay [1] (HeLa, maximal STAT6 degradation), the Emax (in general, the maximal effect, on the per cent scale that the assay sets) is 70 to 80%. Further, the EC50 in assay [2] amounted to 15.7 nM.

`CNc1ccn(-c2ccnc3c2cc([C@H](C)N2CC=C(c4c(C)cc(C(=O)N5CCC(CN6CCN(c7ccc(N[C@H]8CCC(=O)NC8=O)c(OC)c7)CC6)CC5)cc4F)CC2)n3C)c(=O)c1` (single isomer, unassigned) [Example 2g126]: the DC50 in assay [1] is 4.3 nM. The molecule also returned an EC50 in assay [2] of 21.2 nM.

As to `CNc1cc(=O)n(-c2ccnc3c2cc([C@H](C)N2CCC(c4c(F)cc(C(=O)N5CCn6nc(CN7CCC(c8ccc(NC9CCC(=O)NC9=O)cc8F)CC7)cc6C5)cc4F)CC2)n3C)cc1F` (stereo partly drawn) [Example 2g111, 3-((4-(1-((5-(3,5-difluoro-4-(1-((S)-1-(4-(5-fluoro-4-(methylamino)-2-oxopyridin-1(2H)-yl)-1-methyl-1H-pyrrolo[2,3-b]pyridin-2-yl)-ethyl)piperidin-4-yl)benzoyl)-4,5,6,7-tetrahydropyrazolo [1,5-a]pyrazin-2-yl)methyl)-piperidin-4-yl)-3-fluorophen-yl)amino)piperidine-2,6-dione], the DC50 in assay [1] came to 0.6 nM. The EC50 in assay [2] was determined as 0.6 nM.

Regarding `CNc1cc(=O)n(-c2ccnc3c2cc(CN2CCC(c4c(F)cc(C(=O)N5CCn6nc(CN7CCC(c8ccc(N[C@@H]9CCC(=O)NC9=O)c(OC)c8)CC7)cc6C5)cc4F)CC2)n3C)cc1F` (single isomer, unassigned) [Example 2g124], the DC50 in assay [1] was determined as 2.5 nM. The molecule further displayed an EC50 in assay [2] of 5.7 nM.

As to `CNc1ccn(-c2ccnc3c2cc(CN2CCC(c4c(F)cc(C(=O)N5CCn6nc(CN7CCC(c8ccc(NC9CCC(=O)NC9=O)cc8F)CC7)cc6C5)cc4F)CC2)n3C)c(=O)c1` (stereo not shown) [Example 2g100, 3-((4-(1-((5-(3,5-difluoro-4-(1-((1-methyl-4-(4-(methyl-amino)-2-oxopyridin-1(2H)-yl)-1H-pyrrolo[2,3-b]pyridin-2-yl)methyl)piperidin-4-yl)-benzoyl)-4,5,6,7-tetrahydro-pyrazolo[1,5-a]pyrazin-2-yl)-methyl)piperidin-4-yl)-3-fluorophenyl)amino)piperi-dine-2,6-dione], the DC50 in assay [1] was 1.2 nM. The molecule further yielded a concentration for a half-maximal effect (EC50) in assay [2] of 1.8 nM.

These data come from patent publication US20250320205A1, “STAT6 DEGRADERS” (Gilead Sciences, Inc., priority 2024, published 2025).
